Literature values as cited in patent US20090318548A1, “PARA-QUINOL DERIVATIVES AND METHODS OF STEREO SELECTIVELY SYNTHESIZING AND USING SAME” (UNIVERSITY OF NORTHERN BRITISH COLUMBIA, priority 2006, published 2009).

Legend:
[1] = target: POLO-like kinase 1 (Plk1) enzyme (Homo sapiens, UniProt P53350)
[2] = target: Bacillus subtilis YycG (Bacillus subtilis, UniProt Q45614); conditions: for inhibition of Bacillus subtilis YycG (comparative experiments): established antibiotics as comparators
[3] = target: T1, YycG from Staphylococcus aureus (Staphylococcus aureus, UniProt Q2G2U4); conditions: read-out: IC50, inhibition of YycG
T1 sequence (Q2G2U4 1-608): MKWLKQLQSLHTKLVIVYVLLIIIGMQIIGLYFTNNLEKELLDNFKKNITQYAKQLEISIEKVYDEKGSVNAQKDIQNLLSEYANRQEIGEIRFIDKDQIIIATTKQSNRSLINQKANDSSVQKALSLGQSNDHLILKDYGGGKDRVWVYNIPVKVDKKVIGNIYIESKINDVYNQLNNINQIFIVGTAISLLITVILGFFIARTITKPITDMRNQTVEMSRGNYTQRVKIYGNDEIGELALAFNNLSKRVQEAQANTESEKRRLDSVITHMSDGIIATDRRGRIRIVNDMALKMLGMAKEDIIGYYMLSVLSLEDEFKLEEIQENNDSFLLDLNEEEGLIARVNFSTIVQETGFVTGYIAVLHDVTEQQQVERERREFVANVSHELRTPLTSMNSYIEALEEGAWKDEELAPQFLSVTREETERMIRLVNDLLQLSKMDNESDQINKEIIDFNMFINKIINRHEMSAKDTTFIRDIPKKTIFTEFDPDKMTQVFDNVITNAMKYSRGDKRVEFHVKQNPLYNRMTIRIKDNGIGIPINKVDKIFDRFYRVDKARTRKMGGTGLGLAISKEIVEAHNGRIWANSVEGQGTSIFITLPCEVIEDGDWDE

Bacillus subtilis YycG, sequence (Q45614 whole entry): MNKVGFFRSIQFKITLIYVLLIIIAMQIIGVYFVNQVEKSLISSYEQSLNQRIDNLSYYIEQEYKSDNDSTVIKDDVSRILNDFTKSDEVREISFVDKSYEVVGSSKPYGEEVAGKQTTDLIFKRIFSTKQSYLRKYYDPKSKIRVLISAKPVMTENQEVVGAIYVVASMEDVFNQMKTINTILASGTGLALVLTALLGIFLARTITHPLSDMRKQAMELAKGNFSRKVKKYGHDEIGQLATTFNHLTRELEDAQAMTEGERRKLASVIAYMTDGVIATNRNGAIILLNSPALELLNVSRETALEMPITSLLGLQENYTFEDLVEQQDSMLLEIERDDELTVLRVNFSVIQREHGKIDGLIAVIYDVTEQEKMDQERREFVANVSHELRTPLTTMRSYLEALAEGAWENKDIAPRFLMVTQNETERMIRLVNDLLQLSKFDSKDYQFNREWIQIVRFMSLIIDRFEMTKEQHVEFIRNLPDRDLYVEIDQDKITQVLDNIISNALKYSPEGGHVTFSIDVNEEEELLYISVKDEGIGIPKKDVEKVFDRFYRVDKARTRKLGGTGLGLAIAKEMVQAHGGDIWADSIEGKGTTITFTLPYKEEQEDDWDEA
POLO-like kinase 1 (Plk1) enzyme, sequence (P53350 whole entry, species assumed): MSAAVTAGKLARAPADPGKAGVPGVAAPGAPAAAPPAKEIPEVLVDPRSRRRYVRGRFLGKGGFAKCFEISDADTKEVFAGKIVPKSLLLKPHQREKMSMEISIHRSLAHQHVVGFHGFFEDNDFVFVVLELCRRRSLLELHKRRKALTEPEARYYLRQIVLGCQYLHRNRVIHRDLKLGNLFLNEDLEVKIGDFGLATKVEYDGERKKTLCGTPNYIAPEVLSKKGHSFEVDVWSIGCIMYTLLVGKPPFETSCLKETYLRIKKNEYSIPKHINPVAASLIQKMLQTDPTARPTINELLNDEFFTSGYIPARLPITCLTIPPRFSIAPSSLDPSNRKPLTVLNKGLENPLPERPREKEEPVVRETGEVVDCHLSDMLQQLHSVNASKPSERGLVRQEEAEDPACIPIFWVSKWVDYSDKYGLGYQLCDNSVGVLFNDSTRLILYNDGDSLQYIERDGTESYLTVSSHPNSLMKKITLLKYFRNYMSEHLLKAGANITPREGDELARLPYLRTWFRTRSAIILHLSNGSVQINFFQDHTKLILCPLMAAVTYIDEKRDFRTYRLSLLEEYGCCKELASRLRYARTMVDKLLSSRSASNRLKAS

Compound	inhibition of Bacillus subtilis YycG (comparative experiments) [2]	also measured
CCCCCCC(C)/C=C(C)/C=C/C(=O)NC1CC2(OC1O)C1OC1C(O)C1OC12 (stereo not drawn) [Aranorosinol A]		inhibition of Plk1 enzyme [1]: 118 µM
CCCCCCC(C)/C=C(C)/C=C/C(=O)N[C@H]1CC2(O[C@H]1O)[C@@H]1O[C@@H]1C(O)(CC(C)=O)[C@@H]1O[C@@H]12 (stereo partly drawn) [Aranorosinol B]		IC50 ([2]; YycG from Bacillus subtilis, read-out: IC50, inhibition of YycG): 223 µM; IC50 [3]: 211 µM
NCC[C@H](O)C(=O)N[C@@H]1C[C@H](N)[C@@H](O[C@H]2O[C@H](CN)[C@@H](O)[C@H](O)[C@H]2O)[C@H](O)[C@H]1O[C@H]1O[C@H](CO)[C@@H](O)[C@H](N)[C@H]1O [amikacin]	negligible inhibition	
Cc1nnc(SCC2=C(C(=O)O)N3C(=O)[C@@H](NC(=O)Cn4cnnn4)[C@H]3SC2)s1 [cefazolin]	negligible inhibition	
CC[C@H]1OC(=O)[C@H](C)[C@@H](O[C@H]2C[C@@](C)(OC)[C@@H](O)[C@H](C)O2)[C@H](C)[C@@H](O[C@@H]2O[C@H](C)C[C@H](N(C)C)[C@H]2O)[C@](C)(O)C[C@@H](C)C(=O)[C@H](C)[C@@H](O)[C@]1(C)O [erythromycin]	negligible inhibition	
